Measured values from US12091426B2, “Bifunctional degraders of hematopoietic progenitor kinase and therapeutic uses thereof” (Nurix Therapeutics, Inc., priority 2021, dated 2024).

Target: T1, HPK1 (Homo sapiens, UniProt Q92918)
T1 construct: A HiBiT tag was introduced by CRISPR on the N terminus of HPK1 in Jurkat cells; host or cells: Jurkat cells (ATCC TIB-152), monoclonal line with CRISPR knock-in of HiBiT at the endogenous HPK1 locus
Assay: HPK1 Cellular HiBit Degradation Assay
Format: cell-based
Details: HiBiT HPK1 Jurkat cells, 24 hrs; for DC50: concentration at which 50% of HPK1 was remaining, read-out: DC50 Category; for Dmax: Jurkat, maximum degradation vs DMSO vehicle control, read-out: Dmax Category
Procedure, shortened: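 Jurkat cells with CRISPR knock-in N-terminal HiBiT-HPK1 were treated with CTMs (11-point, 3.16-fold, 10 uM to 0.1 nM final) for 24 hrs at 37° C. HiBiT lytic luminescence, with parental Jurkat as background and DMSO as 100%, gave % HPK1 remaining; four-parameter fit yielded DC50 and Dmax (100 minus lowest % remaining).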

T1 sequence (Q92918 whole entry): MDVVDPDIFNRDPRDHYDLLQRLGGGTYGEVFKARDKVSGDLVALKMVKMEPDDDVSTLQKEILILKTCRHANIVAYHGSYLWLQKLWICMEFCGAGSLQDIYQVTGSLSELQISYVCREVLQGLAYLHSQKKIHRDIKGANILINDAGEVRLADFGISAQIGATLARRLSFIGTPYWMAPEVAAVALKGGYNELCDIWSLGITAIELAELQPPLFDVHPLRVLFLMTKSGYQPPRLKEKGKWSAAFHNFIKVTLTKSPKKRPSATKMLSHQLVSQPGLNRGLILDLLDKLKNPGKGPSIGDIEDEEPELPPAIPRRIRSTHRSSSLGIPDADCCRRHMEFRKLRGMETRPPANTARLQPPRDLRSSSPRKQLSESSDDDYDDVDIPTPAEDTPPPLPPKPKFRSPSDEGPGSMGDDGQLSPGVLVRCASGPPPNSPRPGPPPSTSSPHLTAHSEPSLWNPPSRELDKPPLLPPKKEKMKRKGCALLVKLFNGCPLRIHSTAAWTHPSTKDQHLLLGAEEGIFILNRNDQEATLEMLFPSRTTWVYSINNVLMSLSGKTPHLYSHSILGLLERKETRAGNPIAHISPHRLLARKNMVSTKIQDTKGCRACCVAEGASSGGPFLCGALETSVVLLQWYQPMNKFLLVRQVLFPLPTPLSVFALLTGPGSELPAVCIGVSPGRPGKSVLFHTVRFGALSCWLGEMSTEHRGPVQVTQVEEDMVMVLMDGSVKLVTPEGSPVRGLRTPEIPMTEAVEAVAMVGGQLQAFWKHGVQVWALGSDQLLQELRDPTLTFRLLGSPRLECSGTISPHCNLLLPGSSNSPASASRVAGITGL

Compound	DC50	Dmax
CC(C)n1cnc2cc(-c3ccc4c(c3)N([C@H]3C[C@@H](N5CCCCC5)C3)C(=O)C43CCN(C(=O)[C@]4(C)CCN(C(=O)C5CCN(c6ccc(C7CCC(=O)NC7=O)cn6)CC5)C4)CC3)nc(NC3CC3)c21 (mixture of isomers) [Example 186, (3RS)-3-(6-{4-[(3R)-3-({6-[4-(cyclopropylamino)-3-(propan-2-yl)-3H-imidazo[4,5-c]pyridin-6-yl]-2-oxo-1-[(1S,3S)-3-(piperidin-1-yl)cyclobutyl]-1,2-dihydrospiro[indole-3,4′-piperidin]-1′-yl}carbonyl)-3-methylpyrrolidine-1-carbonyl]piperidin-1-yl}pyridin-3-yl)piperidine-2,6-dione]	100 to 500 nM	70 to 85%
CC(C)n1cnc2cc(-c3ccc4c(c3)N([C@H]3C[C@@H](N5CCCCC5)C3)C(=O)C43CCN(C(=O)[C@@H]4CCN(C(=O)C5CCN(c6ccc(N7CCC(=O)NC7=O)cc6)CC5)C4)CC3)nc(NC3CC3)c21 [Example 233, 1-(4-{4-[(3R)-3-({6-[4-(cyclopropylamino)-3-(propan-2-yl)-3H-imidazo[4,5-c]pyridin-6-yl]-2-oxo-1-[(1S,3S)-3-(piperidin-1-yl)cyclobutyl]-1,2-dihydrospiro[indole-3,4′-piperidin]-1′-yl}carbonyl)pyrrolidine-1-carbonyl]piperidin-1-yl}phenyl)-1,3-diazinane-2,4-dione]	< 100 nM	70 to 85%
CC(C)n1cnc2cc(-c3ccc4c(c3)N([C@H]3C[C@@H](N5CCCCC5)C3)C(=O)C43CCN(C(=O)c4ccc(C5CCN(C(=O)C6CCN(c7ccc(C8CCC(=O)NC8=O)cn7)CC6)CC5)cc4)CC3)nc(NC3CC3)c21 (mixture of isomers) [Example 302, (3RS)-3-[6-(4-{4-[4-({6-[4-(cyclopropylamino)-3-(propan-2-yl)-3H-imidazo[4,5-c]pyridin-6-yl]-2-oxo-1-[(1S,3S)-3-(piperidin-1-yl)cyclobutyl]-1,2-dihydrospiro[indole-3,4′-piperidin]-1′-yl}carbonyl)phenyl]piperidine-1-carbonyl}piperidin-1-yl)pyridin-3-yl]piperidine-2,6-dione]	100 to 500 nM	70 to 85%
CC(C)n1cnc2cc(-c3ccc4c(c3)N([C@H]3C[C@@H](N5CCCCC5)C3)C(=O)C43CCN(C(=O)C4(C)CCN(C(=O)CN5CCN(c6ccc(C7CCC(=O)NC7=O)cn6)CC5)CC4)CC3)nc(NC3CC3)c21 (mixture of isomers) [Example 123, (3RS)-3-[6-(4-{2-[4-({6-[4-(cyclopropylamino)-3-(propan-2-yl)-3H-imidazo[4,5-c]pyridin-6-yl]-2-oxo-1-[(1S,3S)-3-(piperidin-1-yl)cyclobutyl]-1,2-dihydrospiro[indole-3,4′-piperidin]-1′-yl}carbonyl)-4-methylpiperidin-1-yl]-2-oxoethyl}piperazin-1-yl)pyridin-3-yl]piperidine-2,6-dione]	< 100 nM	50 to 70%
CC(C)n1cnc2cc(-c3ccc4c(c3)N([C@H]3C[C@@H](N5CCCCC5)C3)C(=O)C43CCN(C(=O)c4cccc(C5CCN(C(=O)C6CCN(c7ccc(C8CCC(=O)NC8=O)cn7)CC6)CC5)c4)CC3)nc(NC3CC3)c21 (mixture of isomers) [Example 301, (3RS)-3-[6-(4-{4-[3-({6-[4-(cyclopropylamino)-3-(propan-2-yl)-3H-imidazo[4,5-c]pyridin-6-yl]-2-oxo-1-[(1S,3S)-3-(piperidin-1-yl)cyclobutyl]-1,2-dihydrospiro[indole-3,4′-piperidin]-1′-yl}carbonyl)phenyl]piperidine-1-carbonyl}piperidin-1-yl)pyridin-3-yl]piperidine-2,6-dione]	100 to 500 nM	50 to 70%
CC(C)n1cnc2cc(-c3ccc4c(c3)N([C@H]3C[C@@H](N5CCCCC5)C3)C(=O)C43CCN(C(=O)C4CCN(C(=O)C5CCN(c6ccc(N7CCC(=O)NC7=O)cn6)CC5)CC4)CC3)nc(Nc3ccncc3F)c21 [Example 81, 1-[6-(4-{4-[(6-{4-[(3-Fluoropyridin-4-yl)amino]-3-(propan-2-yl)-3H-imidazo[4,5-c]pyridin-6-yl}-2-oxo-1-[(1S,3S)-3-(piperidin-1-yl)cyclobutyl]-1,2-dihydrospiro[indole-3,4′-piperidin]-1′-yl)carbonyl]piperidine-1-carbonyl}piperidin-1-yl)pyridin-3-yl]-1,3-diazinane-2,4-dione]	< 100 nM	50 to 70%
CC(C)n1cnc2cc(-c3ccc4c(c3)N([C@H]3C[C@@H](N5CCCCC5)C3)C(=O)C43CCN(C(=O)[C@@H]4CCN(C(=O)[C@H]5CC[C@H](Oc6ccc(N7CCC(=O)NC7=O)cn6)CC5)C4)CC3)nc(Nc3ccccc3F)c21 [Example 21, 1-(6-{[(1R,4R)-4-[(3R)-3-[(6-{4-[(2-fluorophenyl)amino]-3-(propan-2-yl)-3H-imidazo[4,5-c]pyridin-6-yl}-2-oxo-1-[(1S,3S)-3-(piperidin-1-yl)cyclobutyl]-1,2-dihydrospiro[indole-3,4′-piperidin]-1′-yl)carbonyl]pyrrolidine-1-carbonyl]cyclohexyl]oxy}pyridin-3-yl)-1,3-diazinane-2,4-dione]	< 100 nM	> 85%
Cc1cc(F)c(Nc2nc(-c3ccc4c(c3)N([C@H]3C[C@@H](N5CCCCC5)C3)C(=O)C43CCN(C(=O)C4=CCN(C(=O)[C@H]5CC[C@H](Nc6cccc7c6C(=O)N(C6CCC(=O)NC6=O)C7=O)CC5)CC4)CC3)cc3ncn(C(C)C)c23)cc1C(=O)NC(C)C (mixture of isomers) [Example 36, 4-fluoro-2-methyl-5-{[6-(2-oxo-1′-{1-[(1R,4R)-4-({2-[(3RS)-2,6-dioxopiperidin-3-yl]-1,3-dioxo-2,3-dihydro-1H-isoindol-4-yl}amino)cyclohexanecarbonyl]-1,2,3,6-tetrahydropyridine-4-carbonyl}-1-[(1S,3S)-3-(piperidin-1-yl)cyclobutyl]-1,2-dihydrospiro[indole-3,4′-piperidin]-6-yl)-3-(propan-2-yl)-3H-imidazo[4,5-c]pyridin-4-yl]amino}-N-(propan-2-yl)benzamide]	100 to 500 nM	50 to 70%
CC(C)n1cnc2cc(-c3ccc4c(c3)N([C@H]3C[C@@H](N5CCCCC5)C3)C(=O)C43CCN(C(=O)C4(C)CCN(C(=O)C5CCN(c6ccc(C7CCC(=O)NC7=O)cn6)CC5)CC4)CC3)nc(NC3CCOCC3)c21 (mixture of isomers) [Example 214, (3RS)-3-[6-(4-{4-methyl-4-[(6-{4-[(oxan-4-yl)amino]-3-(propan-2-yl)-3H-imidazo[4,5-c]pyridin-6-yl}-2-oxo-1-[(1S,3S)-3-(piperidin-1-yl)cyclobutyl]-1,2-dihydrospiro[indole-3,4′-piperidin]-1′-yl)carbonyl]piperidine-1-carbonyl}piperidin-1-yl)pyridin-3-yl]piperidine-2,6-dione]	< 100 nM	70 to 85%
CC(C)n1cnc2cc(-c3ccc4c(c3)N([C@H]3C[C@@H](N5C6CCC5COC6)C3)C(=O)C43CCN(C(=O)C4(C)CCN(C(=O)CC5CCN(c6ccc(C7CCC(=O)NC7=O)cn6)CC5)CC4)CC3)nc(NC3CC3)c21 (mixture of isomers) [Example 222, (3RS)-3-[6-(4-{2-[4-({6-[4-(cyclopropylamino)-3-(propan-2-yl)-3H-imidazo[4,5-c]pyridin-6-yl]-2-oxo-1-[(1S,3S)-3-{3-oxa-8-Azabicyclo[3.2.1]octan-8-yl}cyclobutyl]-1,2-dihydrospiro[indole-3,4′-piperidin]-1′-yl}carbonyl)-4-methylpiperidin-1-yl]-2-oxoethyl}piperidin-1-yl)pyridin-3-yl]piperidine-2,6-dione]	100 to 500 nM	50 to 70%
CC(C)n1cnc2cc(-c3ccc4c(c3)N([C@H]3C[C@@H](N5CCCCC5)C3)C(=O)C43CCN(C(=O)[C@H]4CCN(C(=O)C5CCN(c6ccc(C7CCC(=O)NC7=O)cn6)CC5)C[C@H]4C)CC3)nc(NC3CC3)c21 (mixture of isomers) [Example 247, (3RS)-3-(6-{4-[(3S,4S)-4-({6-[4-(cyclopropylamino)-3-(propan-2-yl)-3H-imidazo[4,5-c]pyridin-6-yl]-2-oxo-1-[(1S,3S)-3-(piperidin-1-yl)cyclobutyl]-1,2-dihydrospiro[indole-3,4′-piperidin]-1′-yl}carbonyl)-3-methylpiperidine-1-carbonyl]piperidin-1-yl}pyridin-3-yl)piperidine-2,6-dione]	< 100 nM	70 to 85%
CC(C)n1cnc2cc(-c3ccc4c(c3)N([C@H]3C[C@@H](N5CCCCC5)C3)C(=O)C43CCN(C(=O)[C@H]4CC[C@@H](C(=O)N5CCC(Nc6ccc(C7CCC(=O)NC7=O)cn6)CC5)CC4)CC3)nc(NC3CC3)c21 (mixture of isomers) [Example 29, (3RS)-3-[6-({1-[(1S,4S)-4-({6-[4-(cyclopropylamino)-3-(propan-2-yl)-3H-imidazo[4,5-c]pyridin-6-yl]-2-oxo-1-[(1S,3S)-3-(piperidin-1-yl)cyclobutyl]-1,2-dihydrospiro[indole-3,4′-piperidin]-1′-yl}carbonyl)cyclohexanecarbonyl]piperidin-4-yl}amino)pyridin-3-yl]piperidine-2,6-dione]	< 100 nM	50 to 70%
CC(C)n1cnc2cc(-c3ccc4c(c3)N([C@H]3C[C@@H](N5CCCCC5)C3)C(=O)C43CCN(C(=O)C4(C)CCN(C(=O)[C@H]5CC[C@H](Oc6ccc(C7CCC(=O)NC7=O)cc6)CC5)CC4)CC3)nc(Nc3ccncc3F)c21 (mixture of isomers) [Example 103, (3RS)-3-(4-{[(1R,4R)-4-{4-[(6-{4-[(3-Fluoropyridin-4-yl)amino]-3-(propan-2-yl)-3H-imidazo[4,5-c]pyridin-6-yl}-2-oxo-1-[(1S,3S)-3-(piperidin-1-yl)cyclobutyl]-1,2-dihydrospiro[indole-3,4′-piperidin]-1′-yl)carbonyl]-4-methylpiperidine-1-carbonyl}cyclohexyl]oxy}phenyl)piperidine-2,6-dione]	< 100 nM	70 to 85%
